Measured values: patent US9592231B2, “Therapy for complications of diabetes” (AbbVie Deutschland GmbH & Co. KG, priority 2007, dated 2017)
Where two headings read alike, the source gives them in different places.

Columns and labels:
ETA [1] = target: T1, ETA (Homo sapiens, UniProt P25101); assay: ETA affinity reported by Riechers et al (1996); type: binding; settings: calculated from the Riechers et al (1996) data
T1 sequence (P25101 21-427): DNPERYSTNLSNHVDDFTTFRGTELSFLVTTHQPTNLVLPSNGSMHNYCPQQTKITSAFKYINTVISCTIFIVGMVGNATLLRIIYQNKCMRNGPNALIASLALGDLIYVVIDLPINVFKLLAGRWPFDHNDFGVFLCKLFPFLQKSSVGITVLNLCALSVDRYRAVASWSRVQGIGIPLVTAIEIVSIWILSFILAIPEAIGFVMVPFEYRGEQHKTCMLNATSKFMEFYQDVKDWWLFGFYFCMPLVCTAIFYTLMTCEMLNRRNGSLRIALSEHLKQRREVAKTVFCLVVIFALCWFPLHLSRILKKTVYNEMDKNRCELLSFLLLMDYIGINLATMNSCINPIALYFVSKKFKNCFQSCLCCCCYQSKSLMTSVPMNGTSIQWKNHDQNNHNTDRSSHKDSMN

hyperglycemic rats = settings: type 2 diabetes model; cited from earlier work
[2] = tested on: rat model of insulin resistance; settings: rats, 5 mg/kg/day, cited from earlier work
[3] = tested on: streptozotocin-induced diabetes in rats; settings: 100 mg/kg/day; cited from earlier work
obese mice = settings: 50 mg/kg/day; cited from earlier work
ETA [4] = target: T1, ETA; settings: Lip (2001); cited from earlier work
ETA [5] = target: T1, ETA; assay: 125I-endothelin-1 receptor binding cold ligand competition, steady-state, human myocardial membranes; set-up: human myocardial membranes prepared from failing and non-failing left ventricles; from tissue; host or cells: human left-ventricular myocardium (failing and non-failing), membrane preparation; settings: mean of 8 assays
moderate hypertension = settings: patients, 10 to 100 mg/day, by comparison with placebo; cited from earlier work
resistant hypertension = settings: Myogen news release Aug. 18, 2005; cited from earlier work
[6] = tested on: rats with streptozotocin-induced diabetes; settings: 100 mg/kg/day; cited from earlier work

Structure (SMILES): COc1cc(OC)nc(OC(C(=O)O)C(OC)(c2ccccc2)c2ccccc2)n1 (racemic) [racemate, 2-(4,6-dimethoxypyrimidin-2-yloxy)-3-methoxy-3,3-diphenylpropionic acid]
- selectivity Ki(ETB)/Ki(ETA) (ETA [1]): about 62

Structure (SMILES): COC(c1ccccc1)(c1ccccc1)[C@H](Oc1nc(C)cc(C)n1)C(=O)O [BSF 208075]
- plasma glucose levels (hyperglycemic rats): reduced

Structure (SMILES): CCCCN(CCCC)C(=O)CN1C[C@H](c2ccc3c(c2)OCO3)[C@@H](C(=O)O)[C@@H]1c1ccc(OC)cc1 [atrasentan]
- ΔAUC for glucose ([2]; meal tolerance test): significantly reduce
- ΔAUC for glucose-insulin index ([2]; meal tolerance test): significantly reduce
- ΔAUC for insulin ([2]; meal tolerance test): significantly reduce
- 3-hour fasting glucose level [2]: not
- 3-hour fasting insulin level [2]: significantly reduce

Structure (SMILES): COc1cc(OC)nc(O[C@H](C(=O)O)C(OC)(c2ccccc2)c2ccccc2)n1 [darusentan, (+)-(S)-2-[(4,6-dimethoxy-2-pyrimidinyl)oxy]-3-methoxy-3,3-diphenylpropionic acid]
- plasma glucose levels [3]: unaffected
- renal effects of streptozotocin-induced diabetes, including increased glomerular diameter and deposition of eosinophilic material within the glomeruli [3]: partially or fully reversed
- increase in body weight (obese mice): completely prevented
- selectivity Ki(ETB)/Ki(ETA) (ETA [4]): about 160
- Ki(ETB)/Ki(ETA) (ETA [5]): 1181±148
- DBP (moderate hypertension): significantly reduce
- SBP (moderate hypertension): significantly reduce
- results of clinical trial DAR-201 (resistant hypertension): positive results
- glomerular matrix protein deposition [6]: normalized
- serum glucose concentrations [6]: neither compound was found to influence
